* marks the point of attachment. Palmitoyl = CCCCCCCCCCCCCCCC(=O)*
B1: mutant PA (CH3(CH2)14C(O)-VVAAKKKGKLTAQELVFLKVKGI-NH2) (peptide)
peptide: Palmitoyl-VVAAKKKGKLTAQELVFLKVKGI-NH2
SMILES: CCCCCCCCCCCCCCCC(=O)N[C@H](C(=O)N[C@H](C(=O)N[C@@H](C)C(=O)N[C@@H](C)C(=O)N[C@@H](CCCCN)C(=O)N[C@@H](CCCCN)C(=O)N[C@@H](CCCCN)C(=O)NCC(=O)N[C@@H](CCCCN)C(=O)N[C@@H](CC(C)C)C(=O)N[C@H](C(=O)N[C@@H](C)C(=O)N[C@@H](CCC(N)=O)C(=O)N[C@@H](CCC(=O)O)C(=O)N[C@@H](CC(C)C)C(=O)N[C@H](C(=O)N[C@@H](Cc1ccccc1)C(=O)N[C@@H](CC(C)C)C(=O)N[C@@H](CCCCN)C(=O)N[C@H](C(=O)N[C@@H](CCCCN)C(=O)NCC(=O)N[C@H](C(N)=O)[C@@H](C)CC)C(C)C)C(C)C)[C@@H](C)O)C(C)C)C(C)C
B2: VEGF-PA (CH3(CH2)14C(O)-VVAAKKKGKLTWQELYQLKYKGI-NH2) (peptide)
peptide: Palmitoyl-VVAAKKKGKLTWQELYQLKYKGI-NH2
SMILES: CCCCCCCCCCCCCCCC(=O)N[C@H](C(=O)N[C@H](C(=O)N[C@@H](C)C(=O)N[C@@H](C)C(=O)N[C@@H](CCCCN)C(=O)N[C@@H](CCCCN)C(=O)N[C@@H](CCCCN)C(=O)NCC(=O)N[C@@H](CCCCN)C(=O)N[C@@H](CC(C)C)C(=O)N[C@H](C(=O)N[C@@H](Cc1c[nH]c2ccccc12)C(=O)N[C@@H](CCC(N)=O)C(=O)N[C@@H](CCC(=O)O)C(=O)N[C@@H](CC(C)C)C(=O)N[C@@H](Cc1ccc(O)cc1)C(=O)N[C@@H](CCC(N)=O)C(=O)N[C@@H](CC(C)C)C(=O)N[C@@H](CCCCN)C(=O)N[C@@H](Cc1ccc(O)cc1)C(=O)N[C@@H](CCCCN)C(=O)NCC(=O)N[C@H](C(N)=O)[C@@H](C)CC)[C@@H](C)O)C(C)C)C(C)C

Tests used:
HUVECs [1] = test: HUVEC migration scratch assay; type: cell-based, human; conditions: 1 μM in EBM with 0.5% FBS, 18 hours; untreated 25.2%
Experimental: To evaluate cell migration, endothelial basal media (EBM) without growth factors (Lonza) was supplemented with 0.5% FBS in order to prevent apoptosis but not promote significant migration or proliferation. Cells were grown to confluence in a 12 well plate and a 1 ml pipette tip was used to create a denuded scratch and the surface was washed twice with PBS to remove detached cells. The average scratch width at the initial time-point was […] Markings were placed on the underside of the plate to ensure the same region of the scratch was recorded in each image. […] The total pixel area of the scratch at the initial time-point was recorded using ImageJ analysis software, and the percent migration was determined from the reduction in denuded area at 18 hours.

[2] = tested on: chicken chorioallantoic membrane (CAM); test: Shell-less chicken chorioallantoic membrane (CAM) angiogenesis assay; type: in vivo; conditions: 2 mM in PBS dried on coverslip, three days following treatment; saline 132%
Text: An established assay reflecting in vivo angiogenesis, the chicken chorioallantoic membrane (CAM) assay, was used to evaluate the angiogenic potential of the VEGF-PA of the present examples. This assay utilizes the extra-embryonic allantois, a tissue derived from the mesoderm that develops into a densely vascularized membrane. A common deviation from the traditional assay is to remove the shell and conduct the assay on a shell-less embryo, termed the shell-less CAM assay, as we have performed here. Fertilized white leghorn chicken eggs (Phil's Fresh Eggs, Forreston, Ill.) were received and cultured in a temperature controlled, humidified egg incubator. On embryonic day 3, eggs were cracked within a sterile tissue culture hood into round 100 mm petri dishes. Fertilized embryos were then transferred to a water-jacketed CO2 incubator, set to 37.5° C., 1% CO2 and 100% relative humidity. On embryonic day 10, the material treatment was dissolved at 2 mM in PBS, evaporated onto the surface of a 5 mm round glass cover slip, and placed facing down on top of the CAM (n=16/group). Digital images were captured through the eyepiece of a Nikon stereomicroscope and vessel density was quantified by the number of intersections of vessel structures with the edge of the cover slip and expressed relative to the initial time-point. Images were captured daily, beginning at embryonic day 10 and culminating on embryonic day 13, the standard range over which the CAM assay is performed. Additionally, images were assessed qualitatively for morphological differences in the CAM vasculature including spoking, branching and leakage.

ischemic hind-limb = test: Murine hind-limb ischemia (HLI) model; type: in vivo, mice; conditions: for limb motor function score / tissue (limb) salvage score: single i.m. injection 25 μl of 2 mM; for limb motor function score: grade 1-5; for tissue (limb) salvage score: grade 1-6; for Rota Rod walking time prior to failure: saline 90.4 seconds; for number of CD31+ capillaries in ischemic limb muscle: tissue harvested at day 28, saline 893/mm2
Experimental: For the HLI procedure, eight week old male FVB wild-type mice (Charles River) were anesthetized by intraperitoneal injection of avertin (125 mg/kg). By means of a dissecting microscope, the femoral nerve was carefully separated from the vessel bundle. The right femoral artery was ligated and excised, including all superficial and deep branches. Critical limb ischemia was immediately verified by laser Doppler imaging (LDPI, MoorLDI-SIM, Moor Instruments, Ltd) to ensure the ratio (ischemic/non-ischemic limb) was ≦0.20. At postoperative day 3, outliers with low ischemia were triaged based on LDPI (ratio ischemic/nonischemic 0.30) as were outliers with extreme ischemia (necrotic demarcation of entire limb), determined by macroscopic evaluation. […] For follow-up, animals underwent reevaluations with LDPI at postoperative day 7, 14, and 28 before animals were sacrificed (CO, asphyxia) for tissue harvest at day 28. At each time-point, tissue perfusion was measured via LDPI, measuring blood flow in both the ischemic and non-ischemic limb and reporting results as the ratio of these two measurements. All LDPI measurements were taken on a 37° C. heating pad to control body temperature. In addition, motor function and tissue damage was semi-quantitatively assessed on post-operative day 7, 14, 21 and 28 by established scoring systems. Tissue damage in the ischemic limb (limb salvage score) was graded as full recovery (grade 6), minor necrosis or nail loss (grade 5), partial toe amputation (grade 4), total toe amputation (grade 3), partial/total foot amputation (grade 2) or partial/total limb amputation (grade 1) (modified from). Limb motor function was graded as unrestricted (grade 5), no active use of toe(s) or spreading (grade 4), restricted foot use (grade 3), no use of foot (grade 2) or no use of limb at all (grade 1) (modified from). Finally, walking capacity was measured via a Rota Rod apparatus. […] The mean of two assessments was used as for failure time for each animal. At day 28, muscle tissue from the ischemic limb was harvested, fixed in methanol, paraffin-embedded, and cross-sectioned (6-μm) for histological immunostaining. Briefly, sections were blocked with 10% donkey serum (30 min, RT). Primary antibodies were diluted in PBS containing BSA, and applied to tissue slices for 2 hrs at 37° C. Sections were stained for CD31, an endothelial-specific marker, using rat anti-CD31 antibodies (BD Pharmingen Inc) and smooth-muscle α-actin (αSMA), a vascular smooth muscle marker, using rabbit-anti-αSMA (Sigma-Aldrich Co.). For immunofluorescent detection, primary antibodies were resolved with Alexa-Fluor-conjugated secondary antibodies (Invitrogen Corporation, Carlsbad, Calif., USA dilution) and nuclei were counterstained with DAPI (Research Organics). Slides were imaged using fluorescent microscopy (Zeiss), and CD31+capillary forms and CD31+/sMA+]mature microvessels/arterioles were quantified in 3 separate high-power fields (20×) from 3 independent sections in each animal (9 images/animal). All error bars indicate the standard error of the mean. Differences between groups were determined using a one-way analysis of variance (ANOVA) with a Bonferroni multiple comparisons post-hoc test using GraphPad InStat v3.0b. […] VEGF-PA or control treatments were administered by an intramuscular injection three days following the induction of critical ischemia by ligation and excision of the right femoral artery and all superficial and deep branches, as described above. Animals were assessed serially throughout the study for motor function and limb salvage and Laser Doppler perfusion imaging (LDPI) was used to assess tissue perfusion. At the end of the study, exercise endurance was recorded on a Rota Rod treadmill and tissue was harvested for immunohistological staining of capillaries to observe effects on the microcirculation.

[3] = target: T1, VEGF receptor 2 (VEGFR2 or KDR) (Homo sapiens, UniProt P35968); test: Sandwich ELISA of phosphorylated VEGFR2 in lysates of stimulated HUVEC; type: cell-based; conditions: HUVEC, 1 μM, 2 minutes exposure; untreated control 1.000±0.109
T1 construct: host or cells: HUVEC
Experimental: Human umbilical vein endothelial cells (HUVECs) and complete endothelial cell growth media (EGM) were purchased (Genlantis, San Diego, Calif.), passaged two times following receipt, and cryo-preserved in media with 5% DMSO. Cells were thawed as needed and grown to confluence in a […] flasks (VWR Falcon) prior to plating for experiments.
Phosphorylation of both VEGFRI and VEGFR2 was assayed using commercially available assay kit (R&D Systems, Minneapolis, Minn.) following the recommended protocol. First, confluent HUVECs plated in 24 well plates were starved for 5 hours in serum-free defined media (SFDM, Genlantis) specifically designed to maintain cells in a growth factor-free setting for growth factor signaling and metabolic assays. Following starvation, the various treatments were dissolved in SFDM to a concentration of 1 μM. […] Cells were exposed to treatment for 2 minutes. To evaluate the time-course of phosphorylation the same protocol was followed and cells were exposed to VEGF-PA for 0, 1, 3, 5, 10, 15, 20, 25, 30, 40, 50, and 60 minutes.

HUVECs [4] = test: HUVEC proliferation (CyQUANT-NF cell number); type: cell-based, human; conditions: 1 μM in EGM, 48 hours; untreated control 100.0%
Experimental: In vitro studies were performed using HUVECs, a primary endothelial cell that is VEGF-responsive and frequently used as a model endothelial cell for angiogenesis studies in vitro [31].
To evaluate proliferation, HUVECs were plated at 5000 per well in a 96 well plate. […] Additionally, unsupplemented growth media was used as a control. After 48 hours, cell number was quantified using CyQUANT-NF (Invitrogen) and a standard fluorescent microplate reader. Cell number is expressed relative to the group treated with unsupplemented growth media.

HUVECs [5] = test: HUVEC survival after serum-starvation (Annexin V-PE apoptosis); type: cell-based, human; conditions: 1 μM in EBM, serum-starvation 24 hours; untreated 31.7%
Experimental: To evaluate cell survival, endothelial basal media (EBM) without growth factors (Lonza) was used to induce a serum-starvation. Cells were plated in 12 well plates and grown to confluence with standard growth media. […] Cells were grown in these conditions for 24 hours. Survival was quantified using Annexin V: PE staining with 7-AAD vital staining (BD Biosciences) following provided assay instructions and analyzed on a DakoCytomation CyAn. Survival was assessed by determining the fraction of cells that were apoptotic (Annexin V-PE positive).

VEGF receptor 1 = VEGF receptor 1 (human, UniProt P17948 27-1338); test: cell-based or functional assay
[6] = 14 days after induction of ischemia

Sequence of VEGF receptor 1 (P17948 27-1338): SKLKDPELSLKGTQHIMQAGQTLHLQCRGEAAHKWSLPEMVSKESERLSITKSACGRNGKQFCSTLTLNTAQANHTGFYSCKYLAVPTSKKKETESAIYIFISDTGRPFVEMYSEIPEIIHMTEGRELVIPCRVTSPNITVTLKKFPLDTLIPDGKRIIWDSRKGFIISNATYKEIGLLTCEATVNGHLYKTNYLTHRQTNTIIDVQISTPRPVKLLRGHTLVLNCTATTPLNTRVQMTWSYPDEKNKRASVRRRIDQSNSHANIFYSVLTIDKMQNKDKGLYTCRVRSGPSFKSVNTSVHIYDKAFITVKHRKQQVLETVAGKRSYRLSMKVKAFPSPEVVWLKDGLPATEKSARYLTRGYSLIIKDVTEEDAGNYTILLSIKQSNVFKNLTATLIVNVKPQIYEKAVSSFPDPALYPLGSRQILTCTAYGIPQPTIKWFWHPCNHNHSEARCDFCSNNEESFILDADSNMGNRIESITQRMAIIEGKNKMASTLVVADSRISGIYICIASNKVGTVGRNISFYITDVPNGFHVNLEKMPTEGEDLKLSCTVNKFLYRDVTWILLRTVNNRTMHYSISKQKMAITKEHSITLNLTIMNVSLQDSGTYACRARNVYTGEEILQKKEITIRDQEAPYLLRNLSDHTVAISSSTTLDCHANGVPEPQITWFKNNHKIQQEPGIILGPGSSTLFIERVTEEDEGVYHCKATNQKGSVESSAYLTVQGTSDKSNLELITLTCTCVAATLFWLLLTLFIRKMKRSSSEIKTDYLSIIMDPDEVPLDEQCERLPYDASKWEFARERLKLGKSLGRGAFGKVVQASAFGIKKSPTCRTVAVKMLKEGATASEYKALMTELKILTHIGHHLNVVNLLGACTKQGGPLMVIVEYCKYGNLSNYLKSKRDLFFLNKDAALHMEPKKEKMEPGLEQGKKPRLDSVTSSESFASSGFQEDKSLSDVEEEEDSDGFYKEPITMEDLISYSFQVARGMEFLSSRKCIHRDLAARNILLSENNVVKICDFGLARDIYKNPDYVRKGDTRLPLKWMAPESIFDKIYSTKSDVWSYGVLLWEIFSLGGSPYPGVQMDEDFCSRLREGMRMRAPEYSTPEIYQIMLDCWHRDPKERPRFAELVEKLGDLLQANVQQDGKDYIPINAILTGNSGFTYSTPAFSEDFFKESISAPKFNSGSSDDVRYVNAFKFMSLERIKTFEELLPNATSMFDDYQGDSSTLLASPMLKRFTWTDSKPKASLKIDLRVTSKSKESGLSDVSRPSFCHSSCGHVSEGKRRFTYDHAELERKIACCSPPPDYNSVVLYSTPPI
T1 sequence (P35968 20-1356): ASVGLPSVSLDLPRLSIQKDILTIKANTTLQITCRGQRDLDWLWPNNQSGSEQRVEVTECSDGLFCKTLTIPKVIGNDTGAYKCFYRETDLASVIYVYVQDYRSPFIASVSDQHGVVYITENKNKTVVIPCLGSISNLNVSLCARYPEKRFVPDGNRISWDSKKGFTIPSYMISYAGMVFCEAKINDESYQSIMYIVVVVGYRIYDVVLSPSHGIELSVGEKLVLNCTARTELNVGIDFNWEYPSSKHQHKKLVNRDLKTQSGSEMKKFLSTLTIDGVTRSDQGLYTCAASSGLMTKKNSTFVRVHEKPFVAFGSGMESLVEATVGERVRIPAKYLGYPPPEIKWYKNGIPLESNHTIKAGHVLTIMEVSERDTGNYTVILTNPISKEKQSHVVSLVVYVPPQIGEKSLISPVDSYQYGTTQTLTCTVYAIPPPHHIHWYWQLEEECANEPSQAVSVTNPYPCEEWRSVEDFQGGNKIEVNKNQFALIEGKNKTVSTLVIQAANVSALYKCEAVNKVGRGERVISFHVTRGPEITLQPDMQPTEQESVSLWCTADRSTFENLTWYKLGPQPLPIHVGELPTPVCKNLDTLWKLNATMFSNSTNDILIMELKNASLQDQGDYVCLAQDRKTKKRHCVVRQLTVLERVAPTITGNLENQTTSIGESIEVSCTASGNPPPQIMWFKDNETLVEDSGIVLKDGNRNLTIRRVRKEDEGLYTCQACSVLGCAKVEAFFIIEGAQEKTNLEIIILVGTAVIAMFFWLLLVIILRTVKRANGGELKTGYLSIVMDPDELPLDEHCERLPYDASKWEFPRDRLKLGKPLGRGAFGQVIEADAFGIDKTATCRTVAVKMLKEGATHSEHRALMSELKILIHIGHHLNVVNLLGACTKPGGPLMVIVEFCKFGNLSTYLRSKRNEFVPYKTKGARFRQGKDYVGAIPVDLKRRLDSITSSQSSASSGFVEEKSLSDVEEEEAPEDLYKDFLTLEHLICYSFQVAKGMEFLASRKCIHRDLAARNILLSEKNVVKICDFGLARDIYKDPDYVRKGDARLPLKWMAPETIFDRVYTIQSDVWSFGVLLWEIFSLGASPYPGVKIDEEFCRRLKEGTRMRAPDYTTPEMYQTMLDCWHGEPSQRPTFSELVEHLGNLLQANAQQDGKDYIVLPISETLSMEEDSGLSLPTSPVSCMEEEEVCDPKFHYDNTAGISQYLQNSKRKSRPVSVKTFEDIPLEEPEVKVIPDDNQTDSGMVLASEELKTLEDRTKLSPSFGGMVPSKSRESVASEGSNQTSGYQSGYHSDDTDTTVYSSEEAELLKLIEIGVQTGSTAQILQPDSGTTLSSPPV

Molecule | reduction in scratch wound size (denuded area) (HUVECs [1]) | blood vessels relative to the initial value [2] | LDPI perfusion ratio (ischemic/non-ischemic limb) (ischemic hind-limb; [6]) | limb motor function score (ischemic hind-limb; day 21) | tissue (limb) salvage score (ischemic hind-limb; day 21) | LDPI perfusion ratio (ischemic/non-ischemic limb) (ischemic hind-limb; day 28) | Rota Rod walking time prior to failure (ischemic hind-limb; day 28) [s] | limb motor function score (ischemic hind-limb; day 28) | tissue (limb) salvage score (ischemic hind-limb; day 28) | number of CD31+ capillaries in ischemic limb muscle (ischemic hind-limb) | VEGFR2 phosphorylation level relative to untreated control [3] | proliferation (cell number relative to unsupplemented growth media) (HUVECs [4]) | fraction of apoptotic cells (Annexin V-PE positive) (HUVECs [5]) | amount of phosphorylated VEGFR1 relative to untreated control (sandwich ELISA on HUVEC lysates, 1 uM, 2 min) (VEGF receptor 1) | other results
Ac-KLTWQELYQLKYKGI-NH2 [VEGF peptide] | 52.5%±4.1% | 139%±11% | 0.54±0.06 | 3.41±0.21 | 3.45±0.25 | 0.52±0.06 | 115.6 ± 10.9 | 3.50±0.17 | 3.45±0.25 | 949±48 /mm2 | 1.343±0.050 | 98.4%±0.7% | 23.4%±1.1% |  | 
CH3(CH2)14C(O)—VVAAKKKGKLTAQELVFLKVKGI-NH2 (Palmitoyl-VVAAKKKGKLTAQELVFLKVKGI-NH2; SMILES CCCCCCCCCCCCCCCC(=O)N[C@H](C(=O)N[C@H](C(=O)N[C@@H](C)C(=O)N[C@@H](C)C(=O)N[C@@H](CCCCN)C(=O)N[C@@H](CCCCN)C(=O)N[C@@H](CCCCN)C(=O)NCC(=O)N[C@@H](CCCCN)C(=O)N[C@@H](CC(C)C)C(=O)N[C@H](C(=O)N[C@@H](C)C(=O)N[C@@H](CCC(N)=O)C(=O)N[C@@H](CCC(=O)O)C(=O)N[C@@H](CC(C)C)C(=O)N[C@H](C(=O)N[C@@H](Cc1ccccc1)C(=O)N[C@@H](CC(C)C)C(=O)N[C@@H](CCCCN)C(=O)N[C@H](C(=O)N[C@@H](CCCCN)C(=O)NCC(=O)N[C@H](C(N)=O)[C@@H](C)CC)C(C)C)C(C)C)[C@@H](C)O)C(C)C)C(C)C) [mutant PA] | 30.0%±7.3% | 149%±8% | 0.42±0.05 | 2.86±0.14 | 3.14±0.26 | 0.48±0.05 | 106.7 ± 17.6 | 3.29±0.18 | 3.43±0.37 | 954±81 /mm2 | 1.001±0.103 | 101.8%±1.4% | 24.2%±1.1% |  | 
Native VEGF (from UniProt P15692 27-191) (ligand) |  |  |  |  |  |  |  |  |  |  |  |  |  |  | amount of phosphorylated VEGFR1 relative to untreated control (sandwich ELISA on HUVEC lysates, 100 ng/ml, 2 min) (fold of untreated control) (VEGF receptor 1): 1.31
B1 |  |  |  |  |  |  |  |  |  |  |  |  |  | 0.931 fold of untreated control | 
Ac-KLTWQELYQLKYKGI-NH2 [VEGF peptide (Ac-KLTWQELYQLKYKGI-NH2)] |  |  |  |  |  |  |  |  |  |  |  |  |  | 1.33 fold of untreated control | 
B2 |  |  |  |  |  |  |  |  |  |  |  |  |  | 1.63 fold of untreated control | 
